Assay results reported in US20200093852A1, “Methods of Treating Ocular Disorders” (priority 2016, published 2020).
Structures can show the parent of a compound that is named as a salt. Where two headings read alike, the source gives them in different places.

Target: T1, Recombinant human active heparanase (Homo sapiens, UniProt Q9Y251)
T1 construct: Recombinant human active heparanase derived from Chinese hamster ovary cells; purchased R&D Systems; host or cells: Chinese hamster ovary cells
T1 sequence (Q9Y251 158-543 limits assumed): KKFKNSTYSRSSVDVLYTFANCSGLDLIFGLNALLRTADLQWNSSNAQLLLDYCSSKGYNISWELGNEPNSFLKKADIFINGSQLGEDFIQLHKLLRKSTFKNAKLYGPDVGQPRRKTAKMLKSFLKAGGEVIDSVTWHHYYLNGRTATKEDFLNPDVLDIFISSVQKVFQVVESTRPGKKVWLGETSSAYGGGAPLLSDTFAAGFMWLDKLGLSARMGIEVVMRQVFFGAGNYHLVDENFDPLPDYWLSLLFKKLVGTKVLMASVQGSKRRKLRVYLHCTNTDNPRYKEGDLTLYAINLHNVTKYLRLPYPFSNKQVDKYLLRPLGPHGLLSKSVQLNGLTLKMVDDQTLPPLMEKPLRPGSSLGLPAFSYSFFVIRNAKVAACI
T1 sequence (Q9Y251 36-109 limits assumed): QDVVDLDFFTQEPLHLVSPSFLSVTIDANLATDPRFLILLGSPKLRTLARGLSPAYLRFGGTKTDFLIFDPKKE
Assay: Heparanase enzyme inhibition assay (fondaparinux substrate, WST-1 detection)
Type: biochemical
Procedure: Recombinant human active heparanase derived from Chinese hamster ovary cells was from R&D Systems. […] The plates were washed three times with PBST, shaken dry, and stored for up to two weeks at 4° C. before use. […] Following initiation of the reaction by addition of fondaparinux, the plate was sealed with adhesive film and incubated at 37° C. for 20-24 h.
Test compounds were dissolved and added to the assay at varying concentrations to calculate the level of inhibition.

[1] = Table 3, read-out: IC50 heparanase inhibition by compounds of Formula 1
[2] = Table 4, read-out: IC50 heparanase inhibition by compounds of Formula 2-4

SMILES	IC50 [1] [µM]	IC50 [2] [µM]	other results
COc1cc2nc(-c3ccc4[nH]ccc4c3)nc(NCCc3c[nH]c4ccccc34)c2cc1OC [BT-2005]	41		
COc1cc2nc(-c3cncc4ccccc34)nc(NCCc3c[nH]c4ccccc34)c2cc1OC [BT-2007]	92.7		
COc1cc2nc(N3CCN(C(=O)C4COc5ccccc5O4)CC3)nc(N)c2cc1OC (stereo not shown) [BT-2013, doxazosin mesylate, reference compound]	57.5		
COc1cc2nc(-c3ccc4ccccc4c3)nc(NCCc3c[nH]c4ccccc34)c2cc1OC [BT-2057]	56		
COc1cc2[nH]c(=S)n(CCNC(=O)c3cc4ccccc4[nH]3)c(=N)c2cc1OC [BT-2058]		9	
COc1cc2nc(-c3cccc4cccnc34)nc(NCCc3c[nH]c4ccccc34)c2cc1OC [BT-2062]	1		
COc1ccc(-c2ccc3[nH]c(C(=O)NCCn4c(=S)[nH]c5cc(OC)c(OC)cc5c4=N)cc3c2)cn1 [BT-2066]		4.2	
COc1cc2[nH]c(=S)n(CCNC(=O)c3cc4cc(-c5ccc(C(=O)N6CCN(C)CC6)cc5)ccc4[nH]3)c(=N)c2cc1OC [BT-2068]		2.8	
COc1cc2[nH]c(=S)n(CCNC(=O)c3cc4cc(-c5cccnc5)ccc4[nH]3)c(=N)c2cc1OC [BT-2070]		1	
COc1cc2[nH]c(=S)n(CCNC(=O)c3c[nH]c4ccccc34)c(=N)c2cc1OC [BT-2071]		7	
COc1cc2[nH]c(=S)n(CCNC(=O)c3cc4ccc(-c5cccnc5)cc4[nH]3)c(=N)c2cc1OC [BT-2072]		3.1	
COc1cc2nc(-c3ccccc3CN3CCOCC3)nc(NCCc3c[nH]c4ccccc34)c2cc1OC [BT-2090]	53.6		
COc1cc2[nH]c(=S)n(CCNC(=O)c3n[nH]c4ccccc34)c(=N)c2cc1OC [BT-2100]		37	
COc1cc2[nH]c(=S)n(CCNC(=O)c3c[nH]c4c(O)cccc34)c(=N)c2cc1OC [BT-2103]		10.7	
COc1cc2[nH]c(=S)n(CCNC(=O)c3ccc(-c4ccccc4)[nH]3)c(=N)c2cc1OC [BT-2113]		10.6	
COc1cc2nc(-c3cccc4cccnc34)nc(NC3CN(C(=O)c4cc5ccccc5[nH]4)C3)c2cc1OC [BT-2120]	0.7		
COc1cc2[nH]c(=S)n(CCNC(=O)c3cc(-c4ccccc4)on3)c(=N)c2cc1OC [BT-2133]		31.7	
COc1cc2nc(SC)n(CCNC(=O)c3cc4ccccc4[nH]3)c(=N)c2cc1OC [BT-2134]		24.9	
CCOC(=O)CSc1nc2cc(OC)c(OC)cc2c(=N)n1CCNC(=O)c1cc2ccccc2[nH]1 [BT-2136]			IC50 (IC50 heparanase inhibition by compounds of Formula 2-4, Table 4): 26.8 µM
COc1cc2nc(SCc3cccc(C(F)(F)F)c3)n(CCNC(=O)c3cc4ccc(-c5cccnc5)cc4[nH]3)c(=N)c2cc1OC [BT-2137]		28	

SMILES	IC50 [1] [µM]	IC50 [2] [µM]	other results
COc1cc2nc(SCc3ccc(C(F)(F)F)cc3)n(CCNC(=O)c3cc4ccc(-c5cccnc5)cc4[nH]3)c(=N)c2cc1OC [BT-2138]		5.9	
COC(=O)c1ccc2c(S(=O)(=O)NC3CN(c4nc(N)c5cc(OC)c(OC)cc5n4)C3)c[nH]c2c1 [BT-2148]	20.5		
COc1cc2nc(SCc3ccc(C(F)(F)F)cc3)n(CCNC(=O)c3cc4cc(-c5cccnc5)ccc4[nH]3)c(=N)c2cc1OC [BT-2152]		2.89	
COc1cc2nc(SCc3ccc(OC(F)(F)F)cc3)n(CCNC(=O)c3cc4cc(-c5cccnc5)ccc4[nH]3)c(=N)c2cc1OC [BT-2153]		5.7	
COc1cc2nc(NCCNC(=O)c3cc(-c4ccccc4)on3)nc(N)c2cc1OC [BT-2161]	18.9		
COc1cc2nc(-c3cccc4cccnc34)nc(NCCc3ccccc3)c2cc1OC [BT-2164]			IC50 (IC50 heparanase inhibition by compounds of Formula 1, Table 3): 6.1 µM
COc1cc2nc(N3CC(NC(=O)c4nnc(-c5ccccc5)o4)C3)nc(N)c2cc1OC [BT-2167]	33		
COc1cc2nc(NCCNC(=O)c3nnc(-c4cc5ccccc5[nH]4)o3)nc(N)c2cc1OC [BT-2169]	3.3		
COc1cc2nc(NCCNC(=O)c3nnc(-c4ccccc4)o3)nc(NCCc3ccccc3)c2cc1OC [BT-2170]	55		
COc1cc2nc(-c3ccc4c(c3)OCCO4)nc(NCCc3c[nH]c4ccccc34)c2cc1OC [BT-2171]	14		
COc1cc2nc(NCCNC(=O)c3nnc(-c4cc5ccccc5[nH]4)o3)nc(N)c2cc1OC [BT-2173]	4.3		
COc1cc2nc(NCCNC(=O)c3nnc(-c4c[nH]c5ncccc45)o3)nc(N)c2cc1OC [BT-2177]	21		
COc1cc2nc(-c3cccc4cccnc34)nc(NCCc3ccccn3)c2cc1OC [BT-2178]	11		
COc1cc2nc(NCCc3ccccn3)nc(NCCc3c[nH]c4ccccc34)c2cc1OC [BT-2179]	18		
COc1cc2nc(-c3cccc4cccnc34)nc(NCCNC(=N)N)c2cc1OC [BT-2181]	11		
COc1cc2nc(NCCNC(=N)N)nc(NCCc3c[nH]c4ccccc34)c2cc1OC [BT-2182]	18		
COc1cc2nc(-c3cccc4cccnc34)nc(NCCNS(=O)(=O)c3ccccc3)c2cc1OC [BT-2184]	3.39		
COc1cc2nc(NCCNC(=O)c3nnc(-c4cccc(F)c4)o3)nc(N)c2cc1OC [BT-2185]	22		
COc1cc2nc(-c3cccc4cccnc34)nc(NCCNC(=O)c3nnc(-c4ccccc4)o3)c2cc1OC [BT-2187]	4.1		
COc1cc2nc(NCCNC(=O)c3nnc(-c4ccccc4)s3)nc(N)c2cc1OC [BT-2229]	13.4		
